The values that follow come from patent publication US9919031B2, “Use of the insulin-like-growth factor 1 splice variant MGF for the prevention of myocardial damage” (THE BOARD OF TRUSTEES OF UNIVERSITY OF ILLINOIS, priority 2002, dated 2018).

One assay has as its system cardiac myocytes. The assay is described as follows: Induction of endogenous MGF expression by PMA, real time RT-PCR. The class given is cell-based. As for the experimental part:
Primary cultures of cardiac myocytes were cultured in serum free media for 24 hours prior to the addition of PMA (200 nM). After 30 min total RNA was extracted and MGF gene expression was assayed using real time RT-PCR. […] B. A repeat of the initial experiment but in the third group PMA was added to the cultures without changing the media. MGF expression is increased to a great extent than when PMA is added with fresh media.
In order to investigate which signal appear to modulate MGF expression in cardiac myocytes, several drugs were applied to cardiomyocyte cultures. These in turn activate signal transduction molecules either directly or indirectly through receptor coupled molecules. One such drug is phorbol myristate acetate (PMA), a phorbol ester that specifically activates the Protein Kinase C family of serine/threonine signaling kinases. […] When the amount of MGF is compared to the amount of liver-type IGF in the control conditions, there is substantially less in the cardiac myocytes. […] When the same experiment was repeated but the PMA was added to myocyte cultures in which the media had not been changed for 24 hours prior to the addition of the PMA, the increase in MGF expression is even greater than when PMA is added along with fresh media (FIG. 5B).
On the technique in general: In qPCR the cycle at which signal appears reflects the starting amount.

For assay [1] the following is noted: rats, recombinant L.IGF-I administered after ischemia; cited from earlier work.
The conditions of assay [2]: animal models of cardiomyopathy and clinical trials; cited from earlier work.

As for `CCCCCCCCCCCCCC(=O)O[C@@H]1[C@@H](C)[C@@]2(O)[C@@H](C=C(CO)C[C@]3(O)C(=O)C(C)=C[C@@H]23)[C@@H]2C(C)(C)[C@]12OC(C)=O` [PMA, phorbol myristate acetate], in the assay with cardiac myocytes (PMA 200 nM, 30 min), the “level of IGF expression” value was “does not change”. The “expression of the endogenous MGF gene” value in the assay with cardiac myocytes (PMA 200 nM, 30 min, serum free media 24 hours, added with fresh media) is “significant increase”. Moreover, the “increase in MGF expression, media not changed” value in the assay on cardiac myocytes (PMA added to cultures whose media had not been changed for 24 hours, versus PMA with fresh media) is recorded as “even greater”.

For “recombinant L.IGF-I: recombinant systemic, liver-type IGF-I”, in assay [1], the “cell death following transient myocardial ischemia” value is “reduced cell death”. For the compound “growth hormone: growth hormone; induces expression of systemic insulin-like growth factors via the liver”, the cardiac function result in assay [2] is listed as “Significant improvement”.
